Assays:
[1] = molecular target: Sodium-dependent serotonin transporter (Rattus norvegicus, UniProt P31652)
Description: Inhibition of 5HT uptake at rat brain SERT

Homo sapiens = organism: Homo sapiens; assay: Selectivity ratio of IC50 for human NET over IC50 for human SERT
[2] = molecular target: T1, Sodium-dependent dopamine transporter (Homo sapiens, UniProt Q01959); assay: Displacement of [3H]WIN-35428 from human recombinant dopamine transporter expressed in CHO cells at 1000 nM; type: cell-based
[3] = molecular target: T2, Sodium-dependent noradrenaline transporter (Homo sapiens, UniProt P23975)
T2 sequence (P23975 whole entry): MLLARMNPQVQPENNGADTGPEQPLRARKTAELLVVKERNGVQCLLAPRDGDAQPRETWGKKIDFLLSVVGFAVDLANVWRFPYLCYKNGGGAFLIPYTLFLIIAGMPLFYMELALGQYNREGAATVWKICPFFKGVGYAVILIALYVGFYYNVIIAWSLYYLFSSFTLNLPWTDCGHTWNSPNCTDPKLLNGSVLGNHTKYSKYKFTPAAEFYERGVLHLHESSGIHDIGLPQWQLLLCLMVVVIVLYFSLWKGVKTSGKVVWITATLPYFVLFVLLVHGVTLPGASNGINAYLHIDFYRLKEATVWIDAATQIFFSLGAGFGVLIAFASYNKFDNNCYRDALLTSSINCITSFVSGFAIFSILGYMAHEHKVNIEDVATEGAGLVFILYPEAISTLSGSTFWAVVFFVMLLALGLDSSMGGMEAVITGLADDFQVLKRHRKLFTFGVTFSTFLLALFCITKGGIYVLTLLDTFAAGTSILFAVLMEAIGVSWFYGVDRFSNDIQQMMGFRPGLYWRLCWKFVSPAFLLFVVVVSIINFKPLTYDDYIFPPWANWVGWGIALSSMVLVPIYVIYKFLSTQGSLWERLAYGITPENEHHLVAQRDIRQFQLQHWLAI
Description: Inhibition of norepinephrine uptake at human norepinephrine transporter expressed in MDCK-Net6 cells

[4] = molecular target: T2, Sodium-dependent noradrenaline transporter; assay: biochemical
Description: Displacement of [3H]nisoxetine from human norepinephrine transporter expressed in MDCK-Net6 cells

[5] = molecular target: T3, Sodium-dependent serotonin transporter (Homo sapiens, UniProt P31645); type: cell-based, JAR
Target sequence in this assay (P31645 whole entry): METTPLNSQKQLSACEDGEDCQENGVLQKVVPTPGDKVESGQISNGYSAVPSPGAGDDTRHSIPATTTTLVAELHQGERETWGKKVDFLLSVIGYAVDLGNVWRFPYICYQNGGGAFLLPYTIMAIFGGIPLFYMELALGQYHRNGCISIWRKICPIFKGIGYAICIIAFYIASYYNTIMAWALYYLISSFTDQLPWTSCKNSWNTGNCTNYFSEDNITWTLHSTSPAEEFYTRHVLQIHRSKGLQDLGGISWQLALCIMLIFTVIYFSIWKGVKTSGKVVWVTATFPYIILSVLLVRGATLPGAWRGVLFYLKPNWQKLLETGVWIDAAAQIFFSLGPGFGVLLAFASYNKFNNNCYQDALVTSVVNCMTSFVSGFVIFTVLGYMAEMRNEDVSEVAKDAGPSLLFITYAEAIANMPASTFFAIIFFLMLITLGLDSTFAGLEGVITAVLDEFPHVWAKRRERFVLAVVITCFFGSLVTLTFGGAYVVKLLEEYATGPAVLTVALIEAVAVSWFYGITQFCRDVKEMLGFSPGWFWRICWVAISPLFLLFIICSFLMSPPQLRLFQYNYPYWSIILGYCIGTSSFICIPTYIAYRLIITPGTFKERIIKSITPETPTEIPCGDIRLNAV

Transporter = Transporter (Rattus norvegicus, UniProt Q63380)
Chain of Transporter (Q63380 whole entry): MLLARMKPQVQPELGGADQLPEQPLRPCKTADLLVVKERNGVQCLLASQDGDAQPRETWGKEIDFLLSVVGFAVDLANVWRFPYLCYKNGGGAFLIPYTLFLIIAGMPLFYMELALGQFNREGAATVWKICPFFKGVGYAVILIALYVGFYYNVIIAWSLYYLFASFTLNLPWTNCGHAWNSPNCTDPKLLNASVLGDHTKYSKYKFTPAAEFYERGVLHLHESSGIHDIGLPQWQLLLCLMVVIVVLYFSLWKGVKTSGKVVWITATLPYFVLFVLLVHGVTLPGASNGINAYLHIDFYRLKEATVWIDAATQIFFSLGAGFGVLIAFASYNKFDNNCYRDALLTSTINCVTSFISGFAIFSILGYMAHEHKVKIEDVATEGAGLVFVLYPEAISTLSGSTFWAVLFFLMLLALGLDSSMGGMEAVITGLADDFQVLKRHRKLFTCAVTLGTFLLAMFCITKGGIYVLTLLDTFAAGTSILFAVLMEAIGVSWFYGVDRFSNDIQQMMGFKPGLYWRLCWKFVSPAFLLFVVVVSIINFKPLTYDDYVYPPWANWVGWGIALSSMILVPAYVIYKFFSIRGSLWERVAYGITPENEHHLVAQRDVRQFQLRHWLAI
Description: Inhibition of norepinephrine uptake at rat brain norepinephrine transporter

[6] = Plasma concentration in Sprague-Dawley rat at 30 mg/kg, ip after 4 hrs; type: ADME, organism-based; set-up: dose 30 mg/kg, route intraperitoneal
[7] = molecular target: T4, 5-hydroxytryptamine receptor 2B (Homo sapiens, UniProt P41595); assay: Activity at 5HT2B receptor assessed as calcium mobilization by FLIPR; type: functional
T4 sequence (P41595 whole entry): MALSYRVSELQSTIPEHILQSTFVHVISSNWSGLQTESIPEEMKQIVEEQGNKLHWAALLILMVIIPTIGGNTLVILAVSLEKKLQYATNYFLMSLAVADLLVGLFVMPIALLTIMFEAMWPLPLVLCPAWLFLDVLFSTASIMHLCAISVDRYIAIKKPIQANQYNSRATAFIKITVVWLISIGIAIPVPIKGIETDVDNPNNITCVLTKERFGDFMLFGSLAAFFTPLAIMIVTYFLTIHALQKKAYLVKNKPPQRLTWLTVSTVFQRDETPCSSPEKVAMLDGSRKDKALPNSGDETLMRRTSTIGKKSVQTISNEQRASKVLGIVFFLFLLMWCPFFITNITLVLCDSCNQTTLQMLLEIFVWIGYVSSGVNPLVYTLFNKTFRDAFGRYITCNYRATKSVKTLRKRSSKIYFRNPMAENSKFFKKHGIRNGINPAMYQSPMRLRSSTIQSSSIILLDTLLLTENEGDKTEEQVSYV

[8] = molecular target: T5, 5-hydroxytryptamine receptor 1B (Homo sapiens, UniProt P28222); assay: Inhibition of 5HT1B receptor by competition radioligand binding assay
T5 sequence (P28222 whole entry): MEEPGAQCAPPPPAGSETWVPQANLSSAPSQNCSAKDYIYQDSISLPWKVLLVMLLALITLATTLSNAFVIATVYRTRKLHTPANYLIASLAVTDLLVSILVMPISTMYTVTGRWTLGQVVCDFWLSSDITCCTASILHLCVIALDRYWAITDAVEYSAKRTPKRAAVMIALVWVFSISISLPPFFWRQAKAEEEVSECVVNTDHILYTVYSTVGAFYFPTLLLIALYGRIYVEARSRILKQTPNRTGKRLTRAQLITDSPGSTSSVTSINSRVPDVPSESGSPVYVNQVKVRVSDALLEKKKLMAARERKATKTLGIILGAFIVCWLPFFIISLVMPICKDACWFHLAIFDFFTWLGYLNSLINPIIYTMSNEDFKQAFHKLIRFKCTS

[9] = Plasma concentration in Sprague-Dawley rat at 1 mg/kg, iv after […]; type: ADME, organism-based; set-up: dose 1 mg/kg, route intravenous
[10] = Plasma concentration in Sprague-Dawley rat at 30 mg/kg, ip after 6 hrs; type: ADME, organism-based; set-up: dose 30 mg/kg, route intraperitoneal
[11] = molecular target: T6, 5-hydroxytryptamine receptor 1D (Homo sapiens, UniProt P28221); assay: Inhibition of 5HT1D receptor by competition radioligand binding assay
T6 sequence (P28221 whole entry): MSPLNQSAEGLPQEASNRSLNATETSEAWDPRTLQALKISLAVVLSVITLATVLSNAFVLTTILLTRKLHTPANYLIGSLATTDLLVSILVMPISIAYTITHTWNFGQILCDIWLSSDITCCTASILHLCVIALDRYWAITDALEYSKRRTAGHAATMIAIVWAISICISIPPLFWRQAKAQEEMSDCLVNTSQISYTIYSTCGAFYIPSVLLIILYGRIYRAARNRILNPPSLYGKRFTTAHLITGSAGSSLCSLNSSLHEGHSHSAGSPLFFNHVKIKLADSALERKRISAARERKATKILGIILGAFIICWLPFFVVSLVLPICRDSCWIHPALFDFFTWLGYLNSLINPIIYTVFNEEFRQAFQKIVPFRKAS

[12] = Activity at adrenergic receptor 1 alpha assessed as calcium mobilization by FLIPR
[13] = Plasma concentration in Sprague-Dawley rat at 1 mg/kg, iv after 0.5 hrs; type: ADME, organism-based; set-up: dose 1 mg/kg, route intravenous
[14] = AUC (0 to infinity) in Sprague-Dawley rat at 30 mg/kg, po; type: ADME, organism-based; set-up: time infinity, dose 30 mg/kg, route oral; settings: plasma
Rattus norvegicus [15] = assay: Effect on ovariectomy-induced thermoregulatory dysfunction in telemetry Sprague-Dawley rat model assessed as mean reduction in tail skin temperature at 30 mg/kg, ip after 6.5 hrs relative to control; type: functional; settings: route intraperitoneal
[16] = molecular target: T7, 5-hydroxytryptamine receptor 7 (Homo sapiens, UniProt P34969); assay: Activity at 5HT7 receptor assessed as calcium mobilization by FLIPR; type: functional
[17] = Plasma concentration in Sprague-Dawley rat at 30 mg/kg, po after 4 hrs; type: ADME, organism-based; set-up: dose 30 mg/kg, route oral
[18] = Plasma concentration in Sprague-Dawley rat at 30 mg/kg, po after 8 hrs; type: ADME, organism-based; set-up: dose 30 mg/kg, route oral
[19] = Plasma concentration in Sprague-Dawley rat at 1 mg/kg, iv after 0.033 hrs; type: ADME, organism-based; set-up: dose 1 mg/kg, route intravenous
Rattus norvegicus [20] = assay: Effect on ovariectomy-induced thermoregulatory dysfunction in telemetry Sprague-Dawley rat model assessed as mean reduction in tail skin temperature at 30 mg/kg, po after 3 hrs relative to control; type: functional
[21] = Half life in Sprague-Dawley rat at 30 mg/kg, ip; type: ADME, organism-based; set-up: dose 30 mg/kg, route intraperitoneal; settings: in vivo
[22] = Cmax in Sprague-Dawley rat at 30 mg/kg, ip; type: ADME, organism-based; set-up: dose 30 mg/kg, route intraperitoneal; settings: in vivo
[23] = molecular target: T8, 5-hydroxytryptamine receptor 2A (Homo sapiens, UniProt P28223); assay: Inhibition of 5HT2A receptor by competition radioligand binding assay
T8 sequence (P28223 whole entry): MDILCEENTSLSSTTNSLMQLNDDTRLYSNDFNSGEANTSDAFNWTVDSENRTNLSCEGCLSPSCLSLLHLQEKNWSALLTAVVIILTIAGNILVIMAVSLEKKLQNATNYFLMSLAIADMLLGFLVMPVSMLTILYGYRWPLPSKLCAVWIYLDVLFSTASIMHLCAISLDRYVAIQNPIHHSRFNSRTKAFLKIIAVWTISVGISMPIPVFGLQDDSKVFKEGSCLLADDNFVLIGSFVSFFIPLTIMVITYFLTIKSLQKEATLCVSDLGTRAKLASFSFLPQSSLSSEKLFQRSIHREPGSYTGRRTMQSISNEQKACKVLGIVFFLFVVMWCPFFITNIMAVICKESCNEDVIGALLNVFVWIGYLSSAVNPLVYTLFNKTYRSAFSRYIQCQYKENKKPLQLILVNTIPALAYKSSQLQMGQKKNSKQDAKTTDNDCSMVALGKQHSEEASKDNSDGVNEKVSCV

[24] = Cmax in Sprague-Dawley rat at 30 mg/kg, po; type: ADME, organism-based; set-up: dose 30 mg/kg, route oral; settings: in vivo
[25] = AUC (0 to infinity) in Sprague-Dawley rat at 30 mg/kg, ip; type: ADME, organism-based; set-up: time infinity, dose 30 mg/kg, route intraperitoneal; settings: plasma
[26] = Plasma concentration in Sprague-Dawley rat at 30 mg/kg, ip after 8 hrs; type: ADME, organism-based; set-up: dose 30 mg/kg, route intraperitoneal
Mus musculus [27] = assay: Antidepressant activity in Swiss Webster mouse assessed as decrease in immobility time at 30 mg/kg, ip after 30 mins by tail suspension test; type: functional; set-up: scale not given: the % may be the effect or the level left; settings: route intraperitoneal
[28] = molecular target: T4, 5-hydroxytryptamine receptor 2B; assay: Inhibition of 5HT2B receptor by competition radioligand binding assay
[29] = molecular target: T5, 5-hydroxytryptamine receptor 1B; assay: Activity at 5HT1B receptor assessed as calcium mobilization by FLIPR; type: functional
[30] = molecular target: T8, 5-hydroxytryptamine receptor 2A; assay: Activity at 5HT2A receptor assessed as calcium mobilization by FLIPR; type: functional
[31] = Plasma concentration in Sprague-Dawley rat at 30 mg/kg, po after 6 hrs; type: ADME, organism-based; set-up: dose 30 mg/kg, route oral
[32] = molecular target: T3, Sodium-dependent serotonin transporter; assay: Inhibition of 5HT uptake at human SERT expressed in human JAR cells at 1000 nM; type: cell-based
Target sequence in this assay (P31645 whole entry, looked up): as the sequence (P31645 whole entry) above

[33] = Half life in Sprague-Dawley rat at 30 mg/kg, po; type: ADME, organism-based; set-up: dose 30 mg/kg, route oral; settings: in vivo
[34] = Plasma concentration in Sprague-Dawley rat at 1 mg/kg, iv after 1 hr; type: ADME, organism-based; set-up: dose 1 mg/kg, route intravenous
[35] = Plasma concentration in Sprague-Dawley rat at 1 mg/kg, iv after 4 hrs; type: ADME, organism-based; set-up: dose 1 mg/kg, route intravenous
[36] = Plasma concentration in Sprague-Dawley rat at 30 mg/kg, po after 1 hr; type: ADME, organism-based; set-up: dose 30 mg/kg, route oral
[37] = Plasma concentration in Sprague-Dawley rat at 30 mg/kg, ip after 0.5 hrs; type: ADME, organism-based; set-up: dose 30 mg/kg, route intraperitoneal
[38] = Plasma concentration in Sprague-Dawley rat at 1 mg/kg, iv after 6 hrs; type: ADME, organism-based; set-up: dose 1 mg/kg, route intravenous
[39] = molecular target: T9, 5-hydroxytryptamine receptor 6 (Homo sapiens, UniProt P50406); assay: Inhibition of 5HT6 receptor by competition radioligand binding assay
[40] = AUC (0 to infinity) in Sprague-Dawley rat at 1 mg/kg, iv; type: ADME, organism-based; set-up: time infinity, dose 1 mg/kg, route intravenous; settings: plasma
[41] = Inhibition of adrenergic receptor 1 alpha by competition radioligand binding assay
[42] = Plasma concentration in Sprague-Dawley rat at 30 mg/kg, po after 2 hrs; type: ADME, organism-based; set-up: dose 30 mg/kg, route oral
[43] = Plasma concentration in Sprague-Dawley rat at 30 mg/kg, po after […]; type: ADME, organism-based; set-up: dose 30 mg/kg, route oral
Mus musculus [44] = assay: Antidepressant activity in Swiss Webster mouse assessed as decrease in immobility time at 17 mg/kg, ip after 30 mins by tail suspension test; type: functional; set-up: scale not given: the % may be the effect or the level left; settings: route intraperitoneal
[45] = Plasma concentration in Sprague-Dawley rat at 30 mg/kg, ip after 1 hr; type: ADME, organism-based; set-up: dose 30 mg/kg, route intraperitoneal
[46] = Plasma concentration in Sprague-Dawley rat at 30 mg/kg, po after 0.5 hrs; type: ADME, organism-based; set-up: dose 30 mg/kg, route oral
[47] = Plasma concentration in Sprague-Dawley rat at 30 mg/kg, ip after 0.033 hrs; type: ADME, organism-based; set-up: dose 30 mg/kg, route intraperitoneal
[48] = molecular target: T9, 5-hydroxytryptamine receptor 6; assay: Activity at 5HT6 receptor assessed as calcium mobilization by FLIPR; type: functional
[49] = Plasma concentration in Sprague-Dawley rat at 1 mg/kg, iv after 2 hrs; type: ADME, organism-based; set-up: dose 1 mg/kg, route intravenous
[50] = Plasma concentration in Sprague-Dawley rat at 30 mg/kg, ip after […]; type: ADME, organism-based; set-up: dose 30 mg/kg, route intraperitoneal
[51] = Plasma concentration in Sprague-Dawley rat at 30 mg/kg, ip after 2 hrs; type: ADME, organism-based; set-up: dose 30 mg/kg, route intraperitoneal
[52] = molecular target: T6, 5-hydroxytryptamine receptor 1D; assay: Activity at 5HT1D receptor assessed as calcium mobilization by FLIPR; type: functional
[53] = molecular target: T7, 5-hydroxytryptamine receptor 7; assay: Inhibition of 5HT7 receptor by competition radioligand binding assay
[54] = molecular target: T1, Sodium-dependent dopamine transporter; assay: biochemical

T1 sequence (Q01959 whole entry): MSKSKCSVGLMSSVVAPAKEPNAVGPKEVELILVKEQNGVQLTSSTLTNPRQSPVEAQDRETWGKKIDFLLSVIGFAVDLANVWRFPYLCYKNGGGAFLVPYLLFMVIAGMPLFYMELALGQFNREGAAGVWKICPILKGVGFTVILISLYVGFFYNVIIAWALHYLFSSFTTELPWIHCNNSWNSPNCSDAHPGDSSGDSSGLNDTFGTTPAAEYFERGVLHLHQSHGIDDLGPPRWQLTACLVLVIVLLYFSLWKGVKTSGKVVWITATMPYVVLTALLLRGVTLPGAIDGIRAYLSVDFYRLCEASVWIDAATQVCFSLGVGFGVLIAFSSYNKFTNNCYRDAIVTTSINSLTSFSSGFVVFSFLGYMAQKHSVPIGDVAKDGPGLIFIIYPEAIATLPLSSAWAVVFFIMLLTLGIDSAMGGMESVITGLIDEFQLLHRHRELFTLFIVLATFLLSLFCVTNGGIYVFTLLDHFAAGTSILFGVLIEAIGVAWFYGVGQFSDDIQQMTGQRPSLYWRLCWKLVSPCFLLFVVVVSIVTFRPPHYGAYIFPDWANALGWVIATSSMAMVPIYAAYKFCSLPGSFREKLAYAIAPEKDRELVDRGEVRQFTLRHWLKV

CN(C)CC(c1ccccc1Cl)C1(O)CCCCC1 (configuration not stated) gave an IC50 [1] of 13 nM, a Ratio IC50 (Homo sapiens) of 0.86 and an Activity [2] of 9%. It also gave an IC50 [3] of 205 nM, a Ki [4] of 125 nM and an IC50 [5] of 177 nM. The IC50 (Transporter) was 640 nM.

CN1CCN(C[C@H](c2cccc(OC(F)(F)F)c2)C2(O)CCCCC2)CC1.Cl.Cl showed a concentration at 4 h [6] of 520 ng/mL, an EC50 [7] greater than 10 µM and an IC50 [8] greater than 10 µM. The concentration at […] [9] was 225 ng/mL, the concentration at 6 h [10] was 303 ng/mL and the IC50 [11] was greater than 10 µM. The EC50 [12] was greater than 10 µM, the concentration at 0.5 h [13] was 187 ng/mL and the AUC(0-inf) [14] was 931 ng·h/mL. The Activity (Rattus norvegicus [15]) was -2.75 °C, the EC50 [16] was greater than 10 µM and the Activity [2] was 6%. The concentration at 4 h [17] was 79.5 ng/mL, the concentration at 8 h [18] was 14.3 ng/mL and the concentration at 0.033 h [19] was 164 ng/mL. For the same molecule, the Activity (Rattus norvegicus [20]) was -2.16 °C, the half-life [21] was 138 min and the Cmax [22] was 2690 ng/mL. For the same molecule, the IC50 [23] was greater than 10 µM, the Cmax [24] was 324 ng/mL and the AUC(0-inf) [25] was 6160 ng·h/mL. It also gave a concentration at 8 h [26] of 143 ng/mL, an Activity (Mus musculus [27]) of 53% and an IC50 [28] greater than 10 µM. The EC50 [29] was greater than 10 µM, the EC50 [30] was greater than 10 µM and the concentration at 6 h [31] was 36.5 ng/mL. For the same molecule, the inhibition [32] was 3%, the half-life [33] was 96 min and the concentration at 1 h [34] was 109 ng/mL. The concentration at 4 h [35] was 19.1 ng/mL, the concentration at 1 h [36] was 304 ng/mL and the concentration at 0.5 h [37] was 2160 ng/mL. The concentration at 6 h [38] was 2.98 ng/mL, the IC50 [39] was greater than 10 µM and the AUC(0-inf) [40] was 367 ng·h/mL. The IC50 [41] was greater than 10 µM, the concentration at 2 h [42] was 182 ng/mL and the concentration at […] [43] was 115 ng/mL. For the same molecule, the Activity (Mus musculus [44]) was 38%, the concentration at 1 h [45] was 1960 ng/mL and the concentration at 0.5 h [46] was 323 ng/mL. It also gave a concentration at 0.033 h [47] of 942 ng/mL, an EC50 [48] greater than 10 µM and a concentration at 2 h [49] of 55.4 ng/mL. For the same molecule, the concentration at […] [50] was 1580 ng/mL, the concentration at 2 h [51] was 735 ng/mL and the EC50 [52] was greater than 10 µM. It also gave an IC50 [53] greater than 10 µM.

In the case of CN1CCN(CC(c2cccc(Cl)c2)C2(O)CCCCC2)CC1 (configuration not stated), the IC50 [3] is reported as 58 nM, the Ki [4] is reported as 46 nM and the IC50 [5] is reported as 18800 nM. For the same molecule, the Ki [54] was 53 nM.

Molecule OC1(C(CN2CCNCC2)c2cccc(C(F)(F)F)c2)CCCCC1 (configuration not stated) has an Activity [2] of 4%, an inhibition [32] of 13% and an IC50 [3] of 94 nM. The Ki [4] was 58 nM.

Molecule OC1(C(CN2CCNCC2)c2ccc(F)cc2)CCCCC1 (configuration not stated) has an Activity [2] of 22%, an inhibition [32] of 29% and an IC50 [3] of 1500 nM. For the same molecule, the Ki [4] was 1030 nM.

For CN(C)CC(c1ccc(Cl)cc1)C1(O)CCCCC1 (configuration not stated), the Ratio IC50 (Homo sapiens) was 1, the Activity [2] was 23% and the IC50 [3] was 120 nM. It also gave a Ki [4] of 249 nM, an IC50 [5] of 123 nM and an IC50 (Transporter) of 300 nM.

For CN1CCN(CC(c2cccc(OC(F)(F)F)c2)C2(O)CCCCC2)CC1 (configuration not stated), the Activity [2] was 3% and the inhibition [32] was 12%.

Work on CN1CCN(C[C@@H](c2cccc(OC(F)(F)F)c2)C2(O)CCCCC2)CC1 yielded an Activity [2] of 5% and an inhibition [32] of 4%.

Work on OC1([C@@H](CN2CCNCC2)c2cccc(OC(F)(F)F)c2)CCCCC1 yielded an Activity [2] of 15%, an inhibition [32] of 11% and an IC50 [3] of 1290 nM. The Ki [4] was 544 nM.

Reference: ChEMBL document CHEMBL1155011, “Structure-activity relationships of the cycloalkanol ethylamine scaffold: discovery of selective norepinephrine reuptake inhibitors” (J Med Chem, 2008)
